Results from patent publication US10251831B2, “Extract for treating wrinkles and/or fine lines” (Avon Products, Inc., priority 2009, dated 2019).

What was measured:
paxillin mRNA = experiment: Stimulation of paxillin mRNA in vitro (QuantiGene multiplex branched DNA assay); assay type: cell-based; conditions: normal human dermal fibroblasts, 24 hours treatment, normalized to GAPDH
Method: Normal human dermal fibroblasts (Cascade Biologics) were cultured in 96-well tissue culture treated plates, with 200 μl DMEM in 10% serum per well, and incubated for 24 hours at 37° C. and 10% CO2. In some cases, normal human epidermal keratinocytes (Cascade Biologics) were cultured in 200 μl EpiLife medium (Cascade Biologics) per well, and incubated overnight at 37° C. and 5% CO2.
Stock solutions of candidate paxillin stimulators (test materials) were made in appropriate solvents (e.g., DMSO, water, ethanol, a 50:50 ethanol:water mixture) to give weight % as indicated in Table 1 below. Cells were treated with test material or a respective vehicle control diluted in growth medium for 24 hours in a humidified 37° C. incubator with 10% CO2. After incubation, growth medium from each plate was removed and 100 μl of lysis buffer was added to the wells and placed in 37° C. incubator with 5% CO2 for 30 minutes. At the end of incubation, the cells were collected in freezer plates and placed in a −80° C. freezer until analysis.
Changes in mRNA for paxillin in cell lysates after treatment were analysed using QuantiGene® multiplex assay (Panomics Inc. CA) that employs a branched DNA technology. This technology is a hybridization-based method of target-specific RNA quantification that amplifies a signal(s) rather than target RNA, using labelled DNA probe. Probes for Paxillin gene (ID: NM_005953) were designed and synthesized. Paxillin probes, reference probes PPIB and GAPDH, along with a set of other probes were used in this multiplex assay.
The probes used include capture extenders (CE), label extenders (LE), and blockers (BL). As described above, this arrangement provides a target sequence that is double-stranded, thereby improving hybridization efficiency. The CE, LE, and BL sequences used for identifying paxillin mRNA corresponded to SEQ ID NOS: 1, 2, and 3, respectively.
Appropriately diluted cell lysates were hybridized with the paxillin and reference probes in a hybridization plate in a Vortemp shaking incubator, for 18-22 hours at 54° C.±1° C. and 600 rpm. Once the paxillin and the reference mRNAs were captured, the unbound material was filtered using filter plates and washed three times with a wash buffer. Signal amplification was performed using two steps—first a 2.0 Pre-amplifier (Panomics Inc.) was added and incubated for 1 hour in the Vortemp shaking incubator at 54° C.±1° C. and 600 rpm. Unbound Pre-amplifier was filtered using a Filter plate and washed twice. Next the samples were exposed to 2.0 Amplifier (Panomics Inc.) and incubated, filtered, and washed as with the Pre-amplifier. Next the samples were hybridized with biotinylated labelled probe, and incubated for one hour at 54° C.±1° C. and 600 rpm. Samples were then filtered and washed as above. Finally, Streptavidin-conjugated Phycoerythrin (SAPE) working reagent was added and the mixture shaken for 30 minutes at room temperature covered in aluminium foil. Unbound SAPE was filtered and washed twice. SAPE wash buffer was added to each well with shaking for 2-5 minutes, and then readings were taken immediately using a Luminex machine.
Values for amounts of paxillin mRNA were determined along with those for the reference genes PPIB and GAPDH. Values were normalized to GAPDH to determine changes in paxillin mRNA after treatment. Percent increase in mRNA for paxillin was calculated in each case by comparing values after treatment with a candidate paxillin stimulator to values after treatment with the vehicle control.

Paxillin protein = experiment: Stimulation of paxillin protein in human skin biopsy (topical patch, immunohistochemistry); assay type: in vivo
Excerpt: Compositions comprising a paxillin stimulator were each tested on 21 subject volunteers. For each paxillin stimulator, the composition was topically applied via a patch attached to the back of a randomly selected forearm of each of 21 volunteers, and a vehicle control was similarly applied to the back of the volunteer's forearm. After 3 weeks, the human skin biopsies were taken from the treated skin of the various volunteers and subjected to immunohistochemisty preparation. […] Elevated protein level was determined for each treated subject by comparing to the vehicle control.

SMILES: Cc1ccc(C(C)C)cc1O [Carvacrol]
- % increase in Paxillin (relative to control) (paxillin mRNA; Weight % 0.0001%): 39.50%

SMILES: O=C(c1ccccc1)N1C[C@@H]2C[C@H](C1)c1ccc(-c3ccco3)c(=O)n1C2 [Compound of Formula V]
- % increase in Paxillin (relative to control) (paxillin mRNA; Weight % 0.00005%): 28.52%

SMILES: Oc1ccc(C2COc3cc(O)ccc3C2)cc1 (stereo not drawn) [Equol, 4′,7-isoflavandiol]
- % increase in Paxillin (relative to control) (paxillin mRNA; Weight % 0.0001%): 61.46%
- % increase in Paxillin (relative to control) (paxillin mRNA; Weight % 0.001%): 220.36%

SMILES: CCCCCCCC/C=C\CCCCCCCC(=O)OC/C=C(C)/C=C/C=C(C)/C=C/C1=C(C)CCCC1(C)C [Retinyl oleate]
- % increase in Paxillin (relative to control) (paxillin mRNA; Weight % 0.01%): 60.21%

SMILES: CCCCC=CC=CC=CCCCCCCCC(=O)OCC=C(C)C=CC=C(C)C=CC1=C(C)CCCC1(C)C [Retinyl punicate]
- % increase in Paxillin (relative to control) (paxillin mRNA; Weight % 0.01%): 69.68%

SMILES: Cc1coc2c1C(=O)C(=O)c1c-2ccc2c1CCCC2(C)C [Tanshinone IIA, 1,6,6-trimethyl-8,9-dihydro-7H-naphtho[1,2-g][1]benzofuran-10,11-dione]
- % increase in Paxillin (relative to control) (paxillin mRNA; Weight % 0.025%): 188.31%

SMILES: COc1ccc2cc1Oc1ccc(cc1)C[C@H]1c3cc(c(OC)cc3CCN1C)Oc1c(OC)c(OC)cc3c1[C@H](C2)N(C)CC3 [Tetrandine, 6,6′,7,12-Tetramethoxy-2,2′-dimethyl-berbaman]
- % increase in Paxillin (relative to control) (paxillin mRNA; Weight % 0.001%): 84.31%

SMILES: CC/C=C\CCCCCO [cis-6-Nonenol, Cis-6-Nonenol]
- % increase in Paxillin (relative to control) (paxillin mRNA; Weight % 0.001%): 60.84%
- % Subjects Improved (Paxillin protein; percentage of subjects with elevated paxillin protein level vs vehicle control, topical patch on forearm, 3 weeks): 71.4%
- paxillin protein in human skin biopsies (antibody stain, FIG. 1) (Paxillin protein; representative photographs, compared to treatment with a control): increased paxillin protein
- No. Showing Improvement (Paxillin protein; subjects with elevated paxillin protein level vs vehicle control, topical patch on forearm, 3 weeks, 21 subjects): 15
